In patent EP1856102B1, “MEDICAMENTS FOR ALZHEIMER” (Tseti, Ioulia, priority 2005, dated 2006):
pIC50: −log10 of the molar value. Marks after values point to notes of the source that are not given here.

How the values were obtained:
[1] = test system: FCA-induced experimental arthritis in rats; experiment: Adjuvant-induced disease (FCA-induced experimental arthritis); type: in vivo, female Fischer-344 rats; conditions: 0.3-0.6 mmol/kg i.p. once daily for 14 days; in comparison to non treated AID rats
Method: Adjuvant-induced disease (AID) was induced via i.d. injection of Freund's complete adjuvant (0.1 ml of FCA) in the foot pad of the right hind paw of female Fischer-344 rats. The compounds under study were dissolved or suspended in water containing a few drops of Tween 80 and were administered i.p. (0.3-0.6 mmol/kg) once daily for 14 days. In order to observe the progress of local inflammatory reaction, the change in swelling of paw with adjuvant treatment was evaluated by allocation of points (inflammatory score) on an arbitrary scale, while for the quantification of arthritis the arthritic score was recorded.
Table 2: Effect of the test compounds on FCA-induced experimental arthritis in rats

[2] = test system: female Fischer-344 rats; conditions: s.c. once daily for 4 days, dose 84 µM/kg (Indomethacin, 1, 2, 3) or 1350 µM/kg (Naproxen, 4, 5); for Perforating ulcers (%): % of animals which developed perforating ulcers; for Mortality (%): (dead/total) x 100, recorded 24 h after last treatment
Method: Equimolar doses of the parent NSAIDs and the respective derivatives were administered s.c. once daily for 4 days to female Fischer-344 rats (160-180g). The used dose was ca LD50 of the parent NSAID. The incidence of perforating gastrointestinal ulcers, body weight change, melena and mortality were recorded 24 h after the last treatment. […] Table 3: Gastrointestinal toxicity of indomethacin, naproxen and some novel derivatives in rats

[3] = test system: carrageenan-induced edema of the rat hind paw; experiment: Carrageenan-induced edema of the rat hind paw; type: in vivo, female Fischer-344 rats; conditions: 0.3mmol/kg i.p. immediately after carrageenan; paws weighed 3.5 h later; edema suppression in comparison to controls
Method: Edema was induced via i.d. injection of carrageenan (0.1 ml of a 2% w/v aqueous solution) into the right hind paw of female Fischer-344 rats (200-220g) (the left paw serving as control). The compounds under study were dissolved or suspended in water containing a few drops of Tween 80 and were administered i.p. (0.3mmol/kg) immediately after the carrageenan injection. The mice were euthanazed 3.5 h later, both hind paws were severed above the ankle joint and weighted separately. For each animal the swelling caused by the phlogistic was given as percentage of weight increase of right hind paw in comparison to the uninjected left hind paw, and from that, the percentage of edema suppression in comparison to controls was calculated. The parent anti-inflammatory acids (at the same molar concentrations) were used as reference compounds, in addition to the absolute control. […] Table 1: Effect of the test compounds on carrageenan-induced edema of the rat hind paw

[4] = test system: lipid peroxidation of hepatic microsomal fraction; experiment: In vitro lipid peroxidation (TBA reactive material); type: biochemical, Fischer-344 rats; conditions: at 45 min, 37°C; heat inactivated rat hepatic microsomal fraction, FeSO4/ascorbic acid
Method: Hepatic microsomal fraction from untreated Fischer-344 rats was prepared. The incubation mixture contained heat inactivated (90°C for 90 sec) hepatic microsomal fraction, corresponding to 2.5 mg protein/ml (fmal concentration) or 4 mmol/L fatty acid residues, ascorbic acid (0.2 mmol/L) in Tris-HCl/KCl buffer (50 mmol/L / 150mmol/L, pH 7.4) and various concentrations (1-0.05 mmol/L) of the test compounds dissolved in dimethylsulfoxide (DMSO). The reaction was started by the addition of a freshly prepared FeSO4 solution (10 µM/L) and the mixture was incubated at 37°C for 45 min. Aliquots (0.3mL) from the incubation mixture were taken at various time intervals. Lipid peroxidation was assessed spectrophotometrically (535 against 600 nm) by the determination of the TBA reactive material. Under the above experimental conditions, all compounds, as well as DMSO, were tested and found not to interfere with the assay. Each experiment was performed at least in triplicate.

[5] = Interaction with the stable free radical DPPH; conditions: DPPH 0.2 mmol/L in ethanol, room temperature, 45 min
Method: The test compounds were dissolved in absolute ethanol (analytical grade, iron content was less than 10^-3 (w/v), added to an equal volume of an ethanolic solution of DPPH (final concentration 0.2 mmol/L) at various concentrations (0.1 and 0.2 mmol/L) and kept at room temperature. Absorbance (517 nm) was recorded at 45 min. Each experiment was performed at least in triplicate. Table 5: % Interaction of the test compounds with the stable free radical DPPH

[6] = test system: tyloxapol-induced hyperlipidemia; experiment: Tyloxapol-induced hyperlipidemia in rats; type: in vivo; conditions: 56µmol/kg i.p. once, 24 h later, tyloxapol 200 mg/kg i.p.; for % decrease LDL: plasma LDL-cholesterol; for % decrease TC: plasma total cholesterol; for % decrease TG: plasma triglyceride
Method: The hypocholesterolemic and hypolipidemic activity of the test compounds was assessed in vivo by the inhibition of tyloxapol-induced hyperlipidemia (200 mg/kg i.p.) in rats. The novel NSAID derivatives were administered (56µmol/kg, i.p., once) to hypercholesterolemic rats and 24 h later the plasma total cholesterol (TC), LDL and triglyceride (TG) concentrations were determined in blood taken from the aorta. […] Table 6: Effect of the test compounds on plasma total cholesterol, triglyceride and LDL-cholesterol levels of hyperlipidemic rats

Compound	% Inhibition of experimental arthritis [1] [%]	Perforating ulcers (%) [2] [%]	Mortality (%) [2] [%]	Body weight change [2]	% Edema inhibition [3] [%]	pIC50 [4]	% Interaction with the stable free radical DPPH ([5]; compound 0.2mM) [%]	% Interaction with the stable free radical DPPH ([5]; compound 0.1mm) [%]	% decrease LDL [6]	% decrease TC [6]	% decrease TG [6]
COc1ccc2c(c1)c(CC(=O)N1CCCC1C(=O)NCCS)c(C)n2C(=O)c1ccc(Cl)cc1 (stereo not drawn) [Compound 1, 1-{2-[1-(4-Chloro-benzoyl)-5-methoxy-2-methyl-1-H-indol-3-yl]-acetyl}-pyrrolydine-2-carboxylic acid (2-mercapto-ethyl) amide]	50	0	0	+1.3 g/100 body weight	23	–	–	–	–	–	–
COc1ccc2cc([C@H](C)C(=O)O)ccc2c1 [Naproxen, reference compound]	–	–	50	–	45	–	–	–	–	–	–
COc1ccc2c(c1)c(CC(=O)O)c(C)n2C(=O)c1ccc(Cl)cc1 [Indomethacin, reference compound]	–	–	50	–	47.8	–	–	–	–	–	–
CCOC(=O)C(CS)NC(=O)C1CC(O)CN1C(=O)C(C)c1ccc2cc(OC)ccc2c1 (stereo not drawn) [Compound 8]	–	–	–	–	–	3.30	75	55	56.5* %	35.5%	25%
CCOC(=O)C(CS)NC(=O)C1CCCN1C(=O)C(C)c1ccc2cc(OC)ccc2c1 (stereo not drawn) [Compound 5]	100	0	0	+1.5 g/100 body weight	30	3.49	85	65	55* %	58** %	68.7** %
CCOC(=O)C(CS)NC(=O)C1CCCCN1C(=O)C(C)c1ccc2cc(OC)ccc2c1 (stereo not drawn) [Compound 9]	–	–	–	–	–	3.91	76	46	52* %	40%	21.3%
COc1ccc2cc(C(C)C(=O)N3CCCC3C(=O)Oc3ccc(C)cc3OC)ccc2c1 (stereo not drawn) [Compound 6, 1-[2-(6-methoxy-naphthalen-2-yl)-propionyl]-pyrrolidine-2-carboxylic acid 2-methoxy-4-methyl phenyl ester]	–	–	–	–	20	–	–	–	–	–	–
COc1ccc2cc(C(C)C(=O)N3CCCC3C(=O)NCCS)ccc2c1 (stereo not drawn) [Compound 4, 1-[2-(6-methoxy-naphthalen-2-yl)-propionyl]-pyrrolidine-2-carboxylic acid-(2-mercapto-ethyl) amide]	30	–	–	–	30	–	78	57	–	–	–
COc1ccc2cc(C(C)C(=O)N3CC(O)CC3C(=O)NCCS)ccc2c1 (stereo not drawn) [Compound 7, 4-Hydroxy-1-[2-(6-methoxy-naphthalen-2-yl)-propionyl]-pyrrolidine-2-carboxylic acid-(2-mercapto-ethyl) amide]	–	–	–	–	31	–	56	34	53.5 * %	45* %	51%
COc1ccc2c(c1)c(CC(=O)N1CCCC1C(=O)Oc1ccc(C)cc1OC)c(C)n2C(=O)c1ccc(Cl)cc1 (stereo not drawn) [Compound 3, 1-{2-[1-(4-Chloro-benzoyl)-5-methoxy-2-methyl-1-H-indol-3-yl]-acetyl}-pyrrolidine-2-carboxylic acid-2-methoxy-4-methyl-phenyl ester]	–	0	0	+11.1 g/100 body weight	–	–	–	–	–	–	–
CCOC(=O)C(CS)NC(=O)C1CCCN1C(=O)Cc1c(C)n(C(=O)c2ccc(Cl)cc2)c2ccc(OC)cc12 (stereo not drawn) [Compound 2, 2-[(1-{2-[1-(4-Chloro-benzoyl)-5-methoxy-2-methyl-1-H-indol-3-yl]-acetyl}-pyrrolidine-2-carbonyl)-amino]-3-mercapto-propionic acid ethyl ester]	75	0	0	+3.9 g/100 body weight	20	3.41	70	44	–	–	–
